# Experimental data published in patent US20200247855A1, “THERAPY AND DIAGNOSTICS” (OXFORD UNIVERSITY INNOVATION LIMITED, priority 2017, published 2020).
# No end group written: not given here.
# Experiments:
# [1] = target: T1, CCL8_HUMAN (Homo sapiens, UniProt P80075); experiment: Neutralisation of chemokine induced THP-1 cell migration; format: cell-based
# T1 sequence (P80075 24-99): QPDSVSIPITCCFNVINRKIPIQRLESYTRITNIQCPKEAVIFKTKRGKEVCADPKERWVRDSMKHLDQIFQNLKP
# Method: Table 1. Tick CKBPs described in PCT/GB2017/050563 and [17]. Tick peptide sequences isolated in yeast surface display fluorescent-activated cell sorting (FACS) screens using a labelled chemokine. Identity with Evasin-1, 4 or 3 was calculated using BLAST. Abbreviations: IXORI—Ixodes ricinus, RHISA—Rhipicephalus sanguineus, AMBMA—Amblyomma maculatum, AMBPA—Amblyomma parvum, AMBTR—Amblyomma triste, AMBAM—Amblyomma americanum, AMBCA—Amblyomma cajennense, RHIPU—Rhipicephalus pulchellus. Table 2A-C. Binding characteristics of tick CKBPs previously disclosed (PCT/GB2017/050563 and [17]). All members of the human chemokine family[164] are listed in column 1. Binding to human chemokines was determined for 14 tick CKBPs using biolayer interferometry (BLI) with calculated Kd shown as Molar (Moles/Litre). Binding data for 17 other novel tick CKBPs was assayed using yeast surface display[17,166],with positive binding results shown as “YES”. For biolayer interferometry, His-tagged purified tick CKBP was bound to a Ni-NINTA sensor on an OctetRed® 384 system, and then binding to each chemokine listed (with the exception of CCL25, CCL26, CXCL16, CXCL17, CXCL4L1, XCL2) was assayed in a cross-binding screen at a chemokine concentration of 300 nM as described. For those chemokines showing binding to a tick CKBP in the cross-binding screen, binding assays were repeated using different doses of chemokine. Association, equilibrium and dissociation data were analysed using Octet software to create corresponding fitted curves, and used to calculate Kd. For yeast surface display, (YSD) background fluorescence was controlled for by using either an empty vector or by omitting the chemokine (i.e. using streptavidin-Alexa647 alone). An arbitrary threshold of >3 fold over background mean fluorescence intensity was chosen to describe confirmed re-tests. Where binding was detected data are indicated as “YES”. […] For yeast surface display data, empty cells represent chemokines that were not tested. Binding data published in relation to previously described tick CKBPs (Evasins-1, 4 and 3) is also shown for comparison in each of FIGS. 2A-C, with the relevant data obtained from publications: [20-22,32]. Table 3: Neutralisation of human chemokines by tick CKBPs previously disclosed (PCT/GB2017/050563 and [17]). Neutralising activity was determined using a quantitative THP1 cell migration assay in a 96-well Boyden chamber with chemokine in the bottom chamber as described. Cells migrating through to the bottom chamber at 4 hours were counted using flow cytometry in a 96 well plate format. IC50 for neutralisation was determined at the chemokine EC80 dose as determined using a range of tick CKBP concentrations. Data was analysed using GraphPad Prism to determine IC50, which is shown as Molar (Moles/Litre). Empty cells represent experiments not done. Table 4—Other previously described tick CKBPs. Tick CKBPs that were also described in PCT/GB2017/050563 and Singh et al. are indicated in “Notes”. Table 5.—Novel tick CKBPs of the invention. Table 6. […] The peptide sequence prefix indicates the identity, and suffix indicate the tick species as follows: AMBCA, Amblyomma cajennense and IXORI, Ixodes ricinus. […] Individual yeast clones recovered from the library were re-tested using a FACS (fluorescence activated cell sorting), experiment. The binding of the peptide to the chemokine was assayed by measuring the percent (%), of yeast cells expressing the given peptide that exceeded a background threshold set by measuring the fluorescence of the yeast library pool treated with streptavidin-[…] alone. When more than one independent yeast clone was isolated for a given peptide-chemokine combination, the mean percent shift was calculated and reported in column 3.
# [2] = target: T2, His-tagged P672-biotinylated CCL2 interaction (Homo sapiens, UniProt P13500); experiment: AlphaScreen disruption of P672:chemokine interaction; format: binding
# T2 construct: host or cells: P672: HEK293F (in-house); biotinylated CCL2: not described
# T2 sequence (P13500 24-99): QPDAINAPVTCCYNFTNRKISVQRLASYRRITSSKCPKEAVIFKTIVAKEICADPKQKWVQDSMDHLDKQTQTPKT
# Method: (§1) B-D. Effect of indicated peptides at a concentration of 100 μM on a His-tagged P672-biotinylated CCL8, CCL2 or CCL3 interaction respectively using an AlphaScreen assay. In each panel. […] Data are presented as mean±s.e.m. of three independent experiments, shown as individual data points.
# (§2) Data are shown as mean of two technical replicates. Curves were fitted with 4 parameters to estimate IC50.
# (§3) The binding of these peptides to CCL8 was assayed by examining their ability to disrupt the P672:CCL8 interaction using an AlphaScreen assay (FIG. 20E, H). […] BK1 derivatives were tested for their ability to inhibit P672 interactions with CCL2 and CCL3 using AlphaScreen (FIG. 20 F, G, I, J).
# (§4) AlphaScreen® Histidine detection kit was purchased from PerkinElmer (6760619M lot: 2457886) and the assay was set up in white bottom Proxiplate™ 384 Plus microplates (PerkinElmer) following the manufacturer's instructions. The assay buffer used was 50 mM HEPES, 150 mM NaCl, 0.1% BSA, 0.01% Tween20, 1% DMSO, pH 7.5 and the final volume in each well was 20 μL. Briefly, biotinylated chemokine (recombinant, final concentration 1.25 nM (CCL8), 5 nM (CCL2) and 2.5 nM (CCL3)) was pre-incubated at room temperature for 15 min with different concentrations of each peptide. His-tagged P672 (final concentration 2.5 nM (CCL8), 5 nM (CCL2) and 1.25 nM (CCL3)) was then added to each well and the plate was incubated at room temperature for 30 min. Finally, acceptor and donor beads were added as a 1:1 suspension in buffer to each well and the plate was further incubated at RT for 1 h. Data was obtained by reading the plate using a Pherastar FSX plate reader (excitation 680 nm, emission 570 nm) and was analysed using GraphPad Prism.
# [3] = target: T3, His-tagged P672-biotinylated CCL3 interaction (Homo sapiens, UniProt P10147); experiment: as above; format: binding; conditions: AlphaScreen dose-response
# T3 construct: host or cells: P672: HEK293F (in-house); biotinylated CCL3: not described
# T3 sequence (P10147 24-92): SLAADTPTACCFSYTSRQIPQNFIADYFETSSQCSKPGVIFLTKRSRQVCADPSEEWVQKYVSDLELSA
# Method: as §1, §2, §3, §4
substance,measurement,setting,value
EDEDYEDFFKPVTAYF-NH2 [BK1.1],IC50,[1],510 nM
same,Inhibition of P672 interaction with CCL2 (BK1 derivatives),[2]; AlphaScreen dose-response,did not inhibit
same,Disruption of the P672-CCL2 interaction,"[2]; AlphaScreen, peptide 100 μM",disrupted
same,Inhibition of P672 interaction with CCL3 (BK1 derivatives),[3],did not inhibit
